From patent US20250303359A1, “COMPOUNDS AND METHODS FOR SAFE MITIGATION OF OCEAN ACIDIFICATION AND CAPTURE OF ATMOSPHERIC CARBON DIOXIDE” (Negative Emissions Materials, Inc., priority 2022, published 2025)
Like-named read-outs stand apart in the source and are kept apart here.

Assays:
[1] = Sinking rate of Mg(OH)2 in seawater; format: physicochemical
[2] = test system: Skeletonema pseudocastatum
Tisbe battaglial [3] = details: acute, 48 h, n = 1; Mg(OH)2 mixed as paste into local seawater
Danio rerio = details: acute, 96 h, n = 1; Mg(OH)2 paste
Tisbe battaglial [4] = details: chronic, 7 days, n = 1; Mg(OH)2 mixed as paste into local seawater
[5] = test system: Tetraselmis suecica cultures; details: hydroxide additions equivalent to 1 and 10 mg/L of Mg(OH)2, 6-day period
Tetraselmis suecica = details: for survival after six days of regrowth/culture: 1 hour exposure to 100 g/L Mg(OH)2, 200 g/L NaOH or 100 g/L Ca(OH)2, dilution to 10 mg/L, 6 days; for surviving cells immediately after dilution: 1 hour exposure to 200 g/L NaOH or 100 g/L Ca(OH)2, then dilution to 10 mg/L

| Compound | sinking rate ([1]; added as powder, visible particles (>100 μm)) | particle size distribution ([1]; added to seawater as paste) | sinking rate ([1]; small particles of about 10 micron, based on 4 cm sinking within 10 minutes, LISST instrument) [m/day] | dosage showing no negative impact ([2]; standardized ecotoxicity work) [mg/L] | dosages showing negative impact ([2]; standardized ecotoxicity work) [mg/L] | Lowest observed effect concentration (LOEC) ([2]; sub-chronic, 72 h, n = 2, Mg(OH)2 mixed as paste into local seawater) [mg/L] | Lowest observed effect concentration (LOEC) (Tisbe battaglial [3]) [mg/L] | Lowest observed effect concentration (LOEC) (Danio rerio) [mg/L] | Lowest observed effect concentration (LOEC) (Tisbe battaglial [4]) [mg/L] | ecotoxicity (growth inhibition) [5] | survival after six days of regrowth/culture (Tetraselmis suecica) | mortality compared to the control water (Tetraselmis suecica; less than 10 hours of exposure to 100 g/L prior to dilution to 10 mg/L, survival six days after) | lowest tested concentration showing some toxicity effect on aquatic organisms (aquatic organisms; all standard test organisms) [mg/L] | concentration at which no toxicity effect was observed (aquatic organisms; any of the standard test organisms) [ng/mL] | pH of solution in seawater (0.05 g/L Mg(OH)2, after 115 minutes mixing (300 rpm), still increasing) | mixing time to full dissolution of particles (concentrations below ~10 mg/L, 60 m deep seawater pH 7.9-8.0, approx. 22 °C, 300 rpm) | maximum pH achieved (seawater, depends on Mg(OH)2 concentration) | surviving cells immediately after dilution (Tetraselmis suecica) |
| --- | --- | --- | --- | --- | --- | --- | --- | --- | --- | --- | --- | --- | --- | --- | --- | --- | --- | --- |
| [Mg+2].[OH-].[OH-] [Mg(OH)2, magnesium hydroxide] | 0.8-6 km/day | 5-60 μm | ~6 | 25 | ≥ 50 | 50 | 100 | >100 | >100 | not ecotoxic | no mortality | no mortality | 50 | 25000 | 9.04 | approximately 3 hours | ~9.5 |  |
| [Ca+2].[OH-].[OH-] [Ca(OH)2, calcium hydroxide] |  |  |  |  |  |  |  |  |  | not ecotoxic | very few living cells |  |  |  |  |  |  | no surviving cells |
| sodium hydroxide [NaOH] |  |  |  |  |  |  |  |  |  |  | no surviving organisms |  |  |  |  |  |  | no surviving cells |
